Results published in US10899785B2, “Aminoglycoside derivatives and uses thereof in treating genetic disorders” (Eloxx Pharmaceuticals Ltd., priority 2015, dated 2021).
“Also recorded” adds a separate entry of the source. Where two headings read alike, the source gives them in different places.

What was measured:
[1] = test system: prokaryotic ribosome (E. coli S30 extract); assay: Prokaryotic in vitro translation inhibition, coupled transcription/translation, E. coli S30 extract, pBESTluc; format: biochemical; conditions: from IC50^Pro and MIC values of Tables 4 and 6
Description: (§1) Prokaryotic in vitro translation inhibition by the different aminoglycosides was quantified in coupled transcription/translation assays by using E. coli S30 extract for circular DNA with the pBESTluc plasmid (Promega), according to the manufacturer's protocol. Translation reactions (25 μL) that contained variable concentrations of the tested aminoglycoside were incubated at 37° C. for 60 minutes, cooled on ice for 5 minutes, and diluted with a dilution reagent (tris-phosphate buffer (25 mM, pH 7.8), DTT (2 mM), 1,2-diaminocyclohexanetetraacetate (2 mM), glycerol (10%), Triton X-100 (1%) and BSA (1 mg mL-1)) into 96-well plates. Eukaryotic in vitro translation inhibition was quantified by use of TNT® T7 Quick Coupled Transcription/Translation System with a luciferase T7 control DNA plasmid (Promega), according to the manufacturer protocol. Translation reactions (25 μL) containing variable concentrations of the tested aminoglycoside were incubated at 30° C. for 60 minutes, cooled on ice for 5 minutes, diluted with the dilution reagent and transferred into 96-well plates. In both prokaryotic and eukaryotic systems the luminescence was measured immediately after the addition of the Luciferase Assay Reagent (50 μL; Promega), and the light emission was recorded with a FLx800 Fluorescence Microplate Reader (Biotek). The half-maximal inhibition concentration (IC50) values were obtained from fitting concentration-response curves to the data of at least two independent experiments by using Grafit 5 software.
(§2) In all biological tests, all AGs were in their sulfate salt forms, and the concentrations refer to the free amine form of each AG. The eukaryotic and prokaryotic half-maximal-inhibition values (IC50^Euk and IC50^Pro) were quantified in coupled transcription/translation assays by using active luciferase detection as previously described. Minimal inhibitory concentration (MIC) values were determined by using the double-microdilution method.

B. subtilis ATCC-6633 = assay: Antibacterial activity, MIC by double-microdilution; format: cell-based; conditions: Bacillus subtilis
Description: (§3) Comparative antibacterial activities were determined in two representative strains of Gram-negative (E. coli R477-100) and Gram-positive (B. subtilis ATCC-6633) bacteria, by measuring the MIC values using the double-microdilution method according to the National Committee for Clinical Laboratory Standards (NCCLS) (NCCLS. National Committee for Clinical Laboratory Standards, Performance standards for antimicrobial susceptibility testing. Fifth information supplement: Approved Standard M100-S5; Villanova, Pa.: NCCLS, 1994.).
as §2

E. coli R477-100 = assay: as above; format: cell-based; conditions: Escherichia coli, R477100, read-out: Antibacterial Activity MIC E. Coli R 477/100
Description: as §3, §2

human fibroblast cells = conditions: against human fibroblast cells; cited from earlier work
[2] = test system: premature termination codon (PTC); assay: Comparative in-vitro PTC suppression activity assays (Example 6); format: biochemical
[3] = test system: cystic fibrosis G542X nonsense mutation; assay: Cell-free nonsense mutation suppression dose-response assay, firefly/renilla; format: biochemical, rabbit; conditions: 0-50 μM, FIGS. 4-7
Description: (§4) The plasmids were transcribed in vitro and translated using rabbit reticulocytes (TNT mix) and then tested for the expression levels of the firefly and renilla luciferases.
(§5) WT plasmids expressed both firefly and renilla luciferases while mutant plasmids expressed only the renilla luciferase due to the stop codon found in the inserted sequence. The readthrough assays were conducted for the tested compounds and the controls by adding the compounds to the in vitro transcription/translation reaction mixture. In case the compounds exerted suppression of the premature nonsense/stop codon mutation, the firefly luciferase was expressed and a fold-change in its expression was observed.
Readthrough activity of Cystic Fibrosis (CF) mutation G542X was tested using the compounds presented in Table 1, and the mutation suppression was calculated based on firefly/renilla expression ratio values, and normalized with respect to the expression level of the WT and the control sample (no tested compound).

[4] = test system: Rett syndrome R168X, R270X and R294X nonsense mutations; assay: Cell-free nonsense mutation suppression assay, firefly/renilla; format: biochemical, rabbit; conditions: 5 μM, FIGS. 8A-C
Description: as §4, §5
FIGS. 8A-C present the results of Rett syndrome R168X (FIG. 8A), R270X (FIG. 8B) and R294X (FIG. 8C) nonsense mutations suppression cell-free assays conducted for six exemplary compounds according to embodiments of the present invention, NB144, NB145, NB146, NB150, NB151 and NB152, at a concentration of 5 μM. As shown therein, when compared with the control (non-treated cell extracts), the wild type cell extracts are unaffected (approx. 100%); however, in all three Rett syndrome mutation models there is a significant impact of the different treatments on the readthrough activity (>>>100%).

[5] = test system: nonsense constructs R3X and R245X (USH1), Q70X (HS), G542X (CF); assay: Dual luciferase in vitro readthrough assay, p2Luc plasmids, TNT Reticulocyte Lysate; format: biochemical; conditions: all mutations tested: R3X, R245X, Q70X, G542X; FIGS. 11A-D
Description: DNA fragments derived from PCDH15, CFTR, and IDUA cDNAs, including the tested nonsense mutation or the corresponding wild type (wt) codon, and four to six upstream and downstream flanking codons were created by annealing the following pairs of complementary oligonucleotides:
Fragments were inserted in frame into the polylinker of the p2Luc plasmid between either BamHI and SacI (p.R3X and p.R245X) or SalI and SacI (all the rest) restriction sites. For the in vitro readthrough assays, the obtained plasmids, with addition of the tested aminoglycosides were transcribed and translated using the TNT Reticulocyte Lysate Quick Coupled Transcription/Translation System. Luciferase activity was determined after 90 minutes of incubation at 30° C., using the Dual Luciferase Reporter Assay System (Promega™).
Activity was tested using a collection of dual-luciferase reporter plasmids, containing different sequence contests around premature stop codons derived from the PCDH15, CFTR, and IDUA genes that underline USH1, CF, and MPS I-H, respectively. The exemplified nonsense reporters were R3X and R245X for USH1, G542X for CF, and Q70X for MPS I-H.

[6] = test system: eukaryotic cytoplasmic ribosome; assay: Eukaryotic in vitro translation inhibition, TNT T7 Quick Coupled Transcription/Translation System, luciferase; format: biochemical; conditions: NB156 vs NB74, NB157 vs NB124
Description: as §1, with “Translation reactions (25 μL) containing variable concentrations of the tested aminoglycoside were incubated at 30° C. for 60 minutes, cooled on ice for 5 minutes, diluted with the dilution reagent and transferred into 96-well plates.” left out, “The half-maximal inhibition concentration (IC50) values were obtained from fitting concentration-response curves to the data of at least two independent experiments by using Grafit 5 software.” left out
In all biological tests, all AGs were in their sulfate salt forms, and the concentrations refer to the free amine form of each AG. […] Minimal inhibitory concentration (MIC) values were determined by using the double-microdilution method.

[7] = test system: stop codon mutations of Table 5; assay: Dual-luciferase readthrough of a broad arsenal of stop codon mutations; format: biochemical; conditions: all tested mutations
Description: In these assays, the readthrough of a broad arsenal of stop codon mutations in the presence of NB156 and NB157 was tested. Briefly, NB156 and NB157 were tested at escalating doses for their read-through properties towards the nonsense mutation using the wild-type (WT) sequence of each specific complementary DNA (cDNA) as a control, and plasmids bearing the stop codon mutations in a dual-luciferase assay. DNA fragments derived from different cDNAs were prepared using either the WT or nonsense mutation, in which the sequences from the mutant or wild-type codon were surrounded by four to six upstream and downstream flanking codons. The cDNA sequence was inserted into the polylinker of the p2luc plasmid for each sequence.

[8] = ATCC6633, Table 6, read-out: Antibacterial activity MIC B. subtilis ATCC6633
[9] = ATCC6633, Table 4, read-out: Antibacterial Activity MIC B. Subtilis ATCC6633

NC[C@H]1O[C@@H](O[C@@H]2C(O)[C@H](N)CC(N)[C@H]2O[C@H]2OC(CO)=CC(O)[C@@H]2N)C(O)[C@H]1O (some centres unmarked) [NB158]
prokaryotic ribosome/protein synthesis inhibition and subsequent antibacterial activity compared with structurally related compound [1]: significantly lower than that of the corresponding paromamine, NB30, and NB118
MIC (B. subtilis ATCC-6633; [8]): 192 µg/mL

CN[C@@H]1[C@@H](O)[C@@H](O[C@@H]2[C@@H](O)[C@H](O[C@H]3O[C@H]([C@@H](C)O)[C@@H](O)[C@H](O)[C@H]3N)[C@@H](N)C[C@H]2N)OC[C@]1(C)O [Compound G418, geneticin, reference compound]
MIC (B. subtilis ATCC-6633; ATCC6633, read-out: Antibacterial Activity MIC B. Subtilis ATCC6633): < 1.25 µM
MIC (E. coli R477-100): 9 µM
LD50 (human fibroblast cells): 0.04 mg/mL

N[C@H]1[C@@H](O[C@H]2[C@H](O)[C@@H](O)[C@H](N)C[C@@H]2N)OC(CO)=C[C@@H]1O [NB154, (1S,2R,3R,4S,6R)-4,6-diamino-3-(((2S,3R,4S)-3-amino-4-hydroxy-6-(hydroxymethyl)-3,4-dihydro-2H-pyran-2-yl)oxy)cyclohexane-1,2-diol]
in-vitro PTC suppression activity compared with structurally related compound [2]: more or less similar activity as that of NB82
readthrough activity, fold higher than paromamine ([2]; preliminary comparative in-vitro PTC suppression assays): ~3.5 fold
prokaryotic ribosome/protein synthesis inhibition and subsequent antibacterial activity compared with structurally related compound [1]: significantly lower than that of the corresponding paromamine, NB30, and NB118
MIC (B. subtilis ATCC-6633; [8]): > 384 µg/mL
MIC (E. coli R477-100): > 384 µg/mL

C[C@H](N)[C@H]1O[C@@H](O[C@@H]2C(O)[C@H](N)CC(N)[C@H]2O[C@H]2OC(CO)=CC(O)[C@@H]2N)C(O)[C@H]1O (some centres unmarked) [NB159]
prokaryotic ribosome/protein synthesis inhibition and subsequent antibacterial activity compared with structurally related compound [1]: significantly lower than that of the corresponding paromamine, NB30, and NB118
MIC (B. subtilis ATCC-6633; [8]): 192 µg/mL

CCCN[C@@H]1CC(N)[C@@H](O[C@H]2OC([C@@H](C)O)[C@@H](O)C(O)C2N)C(O)C1O (stereo in doubt) [NB146]
G542X mutation suppression (readthrough) activity, dose-response [3]: clearly dose-dependent for all three compounds, and particularly for NB146; also recorded: notable dose-dependent readthrough activity
readthrough activity compared within the series [4]: better activity compared to NB144 and NB145

C[C@H](N)[C@H]1O[C@@H](O[C@@H]2[C@@H](O)[C@H](N)C[C@H](N)[C@H]2O[C@H]2O[C@H]([C@H](O)CO)[C@@H](O)[C@H](O)[C@H]2N)[C@@H](O)[C@H]1O [NB157, (2R, 3S, 4R, 5R, 6S)-5-amino-6-(((1R, 2R, 3S, 4R, 6S)-4,6-diamino-2-(((2S, 3S, 4R, 5R)-5-((S)-1-aminoethyl)-3,4-dihydroxytetrahydrofuran-2-yl)oxy)-3-hydroxycyclohexyl)oxy)-2-((R)-1,2-dihydroxyethyl)tetrahydro-2H-pyran-3,4-diol]
readthrough activity compared with gentamicin [5]: significantly better than that of the clinical drug gentamicin
readthrough activity compared with structurally related compound [5]: better than its structurally related NB124
prokaryotic ribosome/protein synthesis inhibition and subsequent antibacterial activity compared with structurally related compound [1]: very similar to those of their structurally related Compounds NB74 and NB124
MIC (B. subtilis ATCC-6633; [9]): 64 µM
MIC (E. coli R477-100): > 257 µM
fold more specific to the eukaryotic ribosome than structurally related compound [6]: 1.25 fold

NC[C@H]1O[C@@H](O[C@@H]2[C@@H](O)[C@H](N)C[C@H](N)[C@H]2O[C@H]2O[C@H]([C@H](O)CO)[C@@H](O)[C@H](O)[C@H]2N)[C@@H](O)[C@H]1O [NB156, (2R, 3S, 4R, 5R, 6S)-5-amino-6-(((1R, 2R, 3S, 4R, 6S)-4,6-diamino-2-(((2S, 3S, 4R, 5R)-5-(aminomethyl)-3,4-dihydroxytetrahydrofuran-2-yl)oxy)-3-hydroxycyclohexyl)oxy)-2-((R)-1,2-dihydroxyethyl)tetrahydro-2H-pyran-3,4-diol]
readthrough activity compared with gentamicin [5]: significantly better than that of the clinical drug gentamicin
readthrough activity compared with structurally related compound [5]: substantially better than that of the structurally related NB74
prokaryotic ribosome/protein synthesis inhibition and subsequent antibacterial activity compared with structurally related compound [1]: very similar to those of their structurally related Compounds NB74 and NB124
MIC (B. subtilis ATCC-6633; [9]): 34 µM
MIC (E. coli R477-100): > 273 µM
stop-codon mutation readthrough activity compared with NB74 [7]: more active than NB74
fold more specific to the eukaryotic ribosome than structurally related compound [6]: 1.85 fold

C[C@@H](O)C1O[C@H](O[C@@H]2C(N)C[C@@H](NC(=O)C(O)CCN)C(O)C2O[C@@H]2O[C@H](CNC(=N)N)C(O)C2O)C(N)C(O)[C@@H]1O (stereo in doubt) [NB152]
G542X mutation suppression (readthrough) activity, dose-response [3]: notable dose-dependent readthrough activity
readthrough activity compared within the series [4]: higher activity compared to NB150 and NB151
